Measured values reported in patent EP0168350B1, “Certain ring-fused pyrazolo [3,4-d]-pyridin-3-one derivatives” (CIBA-GEIGY AG, priority 1984, dated 1986).
Where a name gives a salt, the structure may show the parent alone.

Experiments:
benzodiazepine receptor = test: in vitro benzodiazepine receptor binding assay (displacement of tritiated flunitrazepam); details: concentration inhibiting specific binding of 0.5 nM tritiated flunitrazepam by 50 %; synaptosomal membranes from rat fore-brain, pH 7.5
Description: The benzodiazepine receptor binding properties indicate of the nervous system regulatory activity of said new compounds are determined in the receptor binding assay in vitro, e.g. similarly to that in Nature 266, 732 ( 977) or Proc. Nat. Acad. Sci. USA 74, 3805 (1977). When tritiated flunitrazepam is used, the interaction of other drugs with said receptor can be readily assessed thus; Synaptosnal membranes from rat fore-brain are incubated at 0-5 for 30 minutes with 0.5 nM tritiated flunitrazepam and various concentrations of the test substance in a buffer medium maintained at pH 7.5. Solutions of the various concentrations of test substance are prepared by dilution of a […] stock solution in dimethylacetamide-ethanol (1:10) with 50 mM pH 7.5 Tris-HCI buffer. The membranes, containing the receptors with various amounts of tritiated flunitrazepam, are filtered onto glass fiber filters, which are then analyzed in a liquid scintillation counter. The concentration of the compounds of this invention, required to inhibit the specific binding of 0.5 nM of tritiated flunitrazepam by 50 %, the ICso, is determined graphically.

male Wistar rats = test: Cook-Davidson conflict procedure for antianxiety effects; type: in vivo, rat; details: dose of about 10 mg/kg p.o.
From the text: Anxiolytic effects are observed, for example, according to the Cook-Davidson conflict procedure, using male Wistar rats which are maintained at 80 % of normal body weight by dietary-, but not water-restriction. They are trained to press a lever within a conditioning chamber, also containing a liquid dipper, a house light, a speaker and a grid-floor. Both lever and grid are connected to an electrical shock source and the chamber is situated in a sound-attenuated room in which a white noise-source is activated during testing, in order to mask any extraneous auditory cues. Each session of 47 minutes duration consists of two alternating schedules. The first is a Variable Interval (VI) schedule of 30 seconds, lasting for 5 minutes, during which a sweetened, condensed milk reinforcement is delivered following the first lever-press after an average of 30 seconds have elapsed, and a drug-induced decrement of this performance is taken as an indication of a neurological deficit. Immediately following the VI-schedule both a 1000 Hz tone and a light-cue are activated, indicating the commencement of the second Fixed Ration (FR) schedule, lasting for 2 minutes, wherein the milk reinforcement is delivered concomitant with an electric foot shock immediately following the tenth response, thereby establishing a conflict situation. The intensity of said shock ranges between 2.0 and 3.6 mA, varying with each animal, in order to adjust them to about 25-100 responses during this schedule over the entire session. A drug-induced enhancement of performance during the FR-schedule is taken as indication of antianxiety effects. This increased performance is measured by the increased number of electric shocks taken during six FR sessions lasting 2 minutes each.

Structure (SMILES)	IC50 (benzodiazepine receptor)	active in the Cook-Davidson test for antianxiety effects (male Wistar rats)
O=C(Nc1ccccn1)c1cnc2c(c1O)CSCC2 [5H-7,8-dihydro-4-hydroxy-3-(N-2-pyridylcarbamoyl)thiopyrano[4,3-b]pyridine]	~8000 pM	
O=c1c2c[nH]c3c(c-2nn1-c1ccc(Cl)cc1)CSCC3 [Example 3a, 2-p-chlorophenyl-2,3,5,6,7,9-hexahydrothiopyrano[4,3-b]pyrazolo[3,4-d]pyridine-3-one]	~350 pM	
O=c1c2c[nH]c3c(c-2nn1-c1ccc(Cl)cc1)COCC3 [Example 4a, 2-p-chlorophenyl-2,3,5,6,7,9-hexahydropyrano[4,3-b]pyrazolo[3,4-d]pyridin-3-one]	~900 pM	active
O=c1c2c[nH]c3c(c-2nn1-c1ccc(Cl)cc1)CCC3 [Example 7a, 2-p-chlorophenyl-2,3,5,6,7,8-hexahydrocyclopenta[b]pyrazolo[3,4-d]pyridin-3-one]	~500 pM	
O=c1c2c[nH]c3c(c-2nn1-c1ccccc1)CCC3 [Example 7b, 2-phenyl-2,3,5,6,7,8-hexahydrocyclopenta[b]pyrazolo[3,4-d]pyridin-3-one]	~1500 pM	
Cl.O=c1c2c[nH]c3c(c-2nn1-c1ccc(Cl)cc1)CCCC3 [Example 8a, 2-p-chlorophenyl-2,3,6,7,8,9-hexahydropyrazolo[4,3-c]quinolin-3(5H)-one hydrochloride]	~3500 pM	active
CC1CCc2[nH]cc3c(=O)n(-c4ccc(Cl)cc4)nc-3c2C1.Cl (stereo not shown) [Example 8e, 2-p-chlorophenyl-2,3,6,7,8,9-hexahydro-8-methylpyrazolo[4,3-c]-quinolin-3(5H)-one hydrochloride]	~1000 pM	active
O=c1c2c[nH]c3c(c-2nn1-c1ccc(Cl)cc1)CCCCC3 [Example 9a, 2-p-chlorophenyl-2,3,5,6,7,8,9,10-ocathydrocyclohepta[b]pyrazolo[3,4-d]pyridin-3-one hydrochloride]	~800 pM	active
COc1ccc(-n2nc3c4c([nH]cc-3c2=O)CCCC4)cc1 [Example 12c, 2-(4-methoxyphenyl)-2,3,6,7,8,9-hexahydropyrazolo[4,3-c]quinolin-3(5H)-one]	~600 pM	
